Experimental data as given in PMC10800876, “Evaluation of proline-rich antimicrobial peptides as potential lead structures for novel antimycotics against Cryptococcus neoformans” (Frontiers in Microbiology, 2024).
Converted amounts (≈) assume the structure as drawn. Where two headings read alike, the source gives them in different places. Starred links: 1 amine or outer side, 2 acyl side, 3 side chain; linkers in the order of their positions; H or OH if unused. Non-standard residues stand in square brackets, D forms with d. Residues, ends and D or L forms follow the SMILES beside them. *: point of attachment. 5FAM = O=C1OC2(c3ccc(O)cc3Oc3cc(O)ccc32)c2ccc(C(=O)*)cc21; δOrn(α-TMG) = CN(C)C(=N[C@@H](CCCN[*:1])C(=O)[*:2])N(C)C; Ac6c = NC1(C(=O)O)CCCCC1; Orn = NCCC[C@H](N)C(=O)O

Key:
[1] = test system: C. neoformans 1841 (serotype D); settings: for activity of Cf-labeled peptide relative to the corresponding unlabeled peptide: C. neoformans 1841
[2] = test system: C. neoformans H99 (serotype A)
[3] = test system: C. neoformans KN99α (serotype A, mating type MATα)
[4] = KN99α (serotype A, mating type MATα, 24 h)
[5] = C. neoformans 1841, read after 24 h, mean of three replicates (n = 3)
[6] = C. neoformans 1841, read after 48 h, mean of three replicates (n = 3)

| MIC (mg/L) 24 h, Cf-labeled peptides ([1]; 1841 (serotype D, 24 h)) [mg/L] | MIC (after 48 h) ([1]; 1841 (serotype D, 48 h)) [µM] | MIC (mg/L) 48 h, Cf-labeled peptides ([1]; 1841 (serotype D, 48 h)) [mg/L] | MIC (mg/L) 24 h, Cf-labeled peptides [1, 5] [mg/L] | MIC (mg/L) 48 h, Cf-labeled peptides [1, 6] [mg/L] | SMILES | activity of Cf-labeled peptide relative to the corresponding unlabeled peptide [1] | further results |
| --- | --- | --- | --- | --- | --- | --- | --- |
| 32 (≈ 12.1 µM) | 7.0 (≈ 18.5 µg/mL) | 32 to 64 | – | – | CC[C@H](C)[C@H](NC(=O)[C@H](Cc1ccc(O)cc1)NC(=O)[C@@H](NC(=O)[C@@H]1CCCN1C(=O)[C@H](CCCNC(=N)N)NC(=O)[C@H](CC(N)=O)NC(=O)[C@H](CC(N)=O)NC(=O)[C@H](CCCNC(=O)c1ccc2c(c1)C(=O)OC21c2ccc(O)cc2Oc2cc(O)ccc21)N=C(N(C)C)N(C)C)C(C)C)C(=O)N1CCC[C@H]1C(=O)N[C@@H](CCCNC(=N)N)C(=O)N1CCC[C@H]1C(=O)N[C@@H](CCCNC(=N)N)C(=O)N1CCC[C@H]1C(=O)N1CCC[C@H]1C(=O)N[C@@H](Cc1c[nH]cn1)C(=O)N1CCC[C@H]1C(=O)N[C@@H](CCCNC(=N)N)C(=O)N[C@@H](CC(C)C)C(N)=O [Cf-Api88] (5FAM-[δOrn(α-TMG)]NNRPVYIPRPRPPHPRL-NH2) | slightly less active | – |
| – | – | – | – | – | CC[C@H](C)[C@H](NC(=O)[C@H](CCCN)NC(=O)[C@H](CCCNC(=N)N)NC(=O)[C@@H]1CCCN1C(=O)[C@@H]1CCCN1C(=O)[C@H](CCCNC(=N)N)NC(=O)[C@@H]1CCCN1C(=O)[C@H](CCCNC(=N)N)NC(=O)[C@@H]1CCCN1C(=O)[C@H](CC(C)C)NC(=O)[C@H](Cc1ccc(O)cc1)NC(=O)[C@@H]1CCCN1C(=O)[C@@H]1CCCN1C(=O)[C@H](CCCCN)NC(=O)[C@H](CC(=O)O)NC(=O)[C@@H](N)C(C)C)C(=O)N[C@@H](Cc1ccc(O)cc1)C(=O)N[C@@H](CC(N)=O)C(=O)N[C@@H](CCCN)C(N)=O [Onc72] (H-VDKPPYLPRPRPPR[Orn]IYN[Orn]-NH2; N-terminus and C-terminus assumed) | – | MIC (μmol/L) 1841 24 h ([1]; 1841 (serotype D, 24 h, pH 7.5)): 28 µmol/L (≈ 64.6 µg/mL); MIC (μmol/L) 1841 48 h ([1]; 1841 (serotype D, 48 h, pH 7.5)): 56 µmol/L (≈ 129 µg/mL); MIC (mg/L) 1841 24 h ([1]; broth microdilution, 50% SAB in phosphate buffer, 30°C, read after 24 h, n = 6): 64 mg/L (≈ 27.8 µM); MIC (mg/L) 1841 48 h ([1]; broth microdilution, 50% SAB in phosphate buffer, 30°C, read after 48 h, n = 6): 128 mg/L (≈ 55.5 µM); MIC (μmol/L) H99 24 h ([2]; H99 (serotype A, 24 h)): 14 µmol/L (≈ 32.3 µg/mL); MIC (mg/L) H99 48 h ([2]; H99 (serotype A, 48 h)): 64 to 128 mg/L; MIC (μmol/L) H99 48 h ([2]; H99 (serotype A, 48 h)): 28 to 56 µmol/L; MIC (mg/L) KN99α 24 h [3, 4]: 32 to 64 mg/L; MIC (μmol/L) KN99α 24 h [3, 4]: 14 to 28 µmol/L; MIC (μmol/L) KN99α 48 h ([3]; KN99α (serotype A, mating type MATα, 48 h)): 56 µmol/L (≈ 129 µg/mL) |
| – | 3.2 (≈ 9.07 µg/mL) | – | 4 (≈ 1.41 µM) | 4 (≈ 1.41 µM) | CC(C)C[C@H](NC(=O)[C@H](Cc1ccc(O)cc1)NC(=O)[C@@H]1CCCN1C(=O)[C@H](CCCNC(=N)N)NC(=O)[C@@H]1CCCN1C(=O)[C@H](CCCCN)NC(=O)[C@H](CC(=O)O)NC(=O)[C@@H]1CCCN1C(=O)[C@H](CCCNC(=N)N)NC(=O)C1(NC(=O)c2ccc3c(c2)C(=O)OC32c3ccc(O)cc3Oc3cc(O)ccc32)CCCCC1)C(=O)N1CCC[C@H]1C(=O)N[C@@H](CCCNC(=N)N)C(=O)N1CCC[C@H]1C(=O)N[C@@H](CCCNC(=N)N)C(=O)N1CCC[C@H]1C(=O)N1CCC[C@H]1C(=O)N[C@@H](CCCNC(=N)N)C(=O)N1CCC[C@H]1C(=O)N[C@H](C(=O)N[C@@H](CCCNC(=N)N)C(N)=O)C(C)C [Cf-Chex1Arg20] (5FAM-[Ac6c]RPDKPRPYLPRPRPPRPVR-NH2) | slightly more active | – |
| >128 | > 61 | >128 | – | – | CC[C@H](C)[C@H](NC(=O)[C@H](Cc1ccc(O)cc1)NC(=O)[C@@H](NC(=O)[C@@H]1CCCN1C(=O)[C@H](CCCNC(=N)N)NC(=O)[C@H](CC(N)=O)NC(=O)[C@H](CC(N)=O)NC(=O)CNC(=O)c1ccc2c(c1)C(=O)OC21c2ccc(O)cc2Oc2cc(O)ccc21)C(C)C)C(=O)N1CCC[C@H]1C(=O)N[C@@H](CCC(N)=O)C(=O)N1CCC[C@H]1C(=O)N[C@@H](CCCNC(=N)N)C(=O)N1CCC[C@H]1C(=O)N1CCC[C@H]1C(=O)N[C@@H](Cc1c[nH]cn1)C(=O)N1CCC[C@H]1C(=O)N[C@@H](CCCNC(=N)N)C(=O)N[C@@H](CC(C)C)C(=O)O [Cf-Apidaecin 1b] (5FAM-GNNRPVYIPQPRPPHPRL-OH) | – | – |
| – | 1.6 (≈ 4.55 µg/mL) | – | 8 (≈ 2.81 µM) | 8 (≈ 2.81 µM) | CC(C)C[C@H](NC(=O)[C@H](Cc1ccc(O)cc1)NC(=O)[C@@H]1CCCN1C(=O)[C@H](CCCNC(=N)N)NC(=O)[C@@H]1CCCN1C(=O)[C@H](CCCCN)NC(=O)[C@H](CCCCN)NC(=O)[C@@H]1CCCN1C(=O)[C@H](CCCNC(=N)N)NC(=O)C1(NC(=O)c2ccc3c(c2)C(=O)OC32c3ccc(O)cc3Oc3cc(O)ccc32)CCCCC1)C(=O)N1CCC[C@H]1C(=O)N[C@@H](CCCNC(=N)N)C(=O)N1CCC[C@H]1C(=O)N[C@@H](CCCNC(=N)N)C(=O)N1CCC[C@H]1C(=O)N1CCC[C@H]1C(=O)N[C@@H](CCCNC(=N)N)C(=O)N1CCC[C@H]1C(=O)N[C@H](C(=O)N[C@@H](CCCNC(=N)N)C(N)=O)C(C)C [Cf-Chex1Arg20 D4K] (5FAM-[Ac6c]RPKKPRPYLPRPRPPRPVR-NH2) | slightly less active | – |
